Earlier results, collected in patent publication US5847092A (Zambon Group S.p.A., priority 1994, dated 1998).

Columns and labels:
[1] = literature; cited from earlier work
[2] = literature; cited from earlier work; remark: listed apart in the source
[3] = tested on: Gram-positive and Gram-negative bacteria; details: literature; cited from earlier work

CC[C@H]1OC(=O)[C@H](C)[C@@H](O[C@H]2C[C@@](C)(OC)[C@@H](O)[C@H](C)O2)[C@H](C)[C@@H](O[C@@H]2O[C@H](C)C[C@H](N(C)C)[C@H]2O)[C@](C)(O)C[C@@H](C)C(=NOCCN(C)C)[C@H](C)[C@@H](O)[C@]1(C)O [Erythromycin A 9-[0-[(2-dimethylamino)ethyl]oxime]]
stability to the acids (in words) [1]: superior stability to the acids
pharmacokinetic properties / bioavailability (in words) [2]: better pharmacokinetic properties
spectrum of activity in vitro (in words) [3]: comparable to that of Erythromycin A

CC[C@H]1OC(=O)[C@H](C)[C@@H](O[C@H]2C[C@@](C)(OC)[C@@H](O)[C@H](C)O2)[C@H](C)[C@@H](O[C@@H]2O[C@H](C)C[C@H](N(C)C)[C@H]2O)[C@](C)(O)C[C@@H](C)C(=NOCCN(CC)CC)[C@H](C)[C@@H](O)[C@]1(C)O [Erythromycin A 9-[0-[(2-diethylamino)ethyl]oxime]]
stability to the acids (in words) [1]: superior stability to the acids
pharmacokinetic properties / bioavailability (in words) [2]: better pharmacokinetic properties
spectrum of activity in vitro (in words) [3]: comparable to that of Erythromycin A
